Consider eight compounds from patent EP2272817A1, “PAI-1 INHIBITOR” (Institute of Medicinal Molecular Design, Inc., priority 2008, dated 2009).

Molecules are shown by their SMILES. Read-outs that look alike come from different tables or passages of the source. Where only a bound is given, the exact number is not on record here.

Test [1] deals with T1, recombinant human PAI-1 (Homo sapiens, UniProt P05121). Nature of the test: biochemical.
Test [2] has as its target T1, recombinant human PAI-1. Description: Test Example 2: Human PAI-1 Inhibitory Activity (pH 7.4 HEPES buffer, 10 minutes incubation with two-chain tPA). Format: biochemical. Set-up: purchased Molecular Innovations, Inc. As to conditions: read-out: Inhibition Rate of PAI-1 Activity (%). As to the method:
0.1 M HEPES, 0.1 M NaCl. 1 mM EDTA. 0.1 % Polyethylene glycol 8,000 (Hampton Research Corporation),
2 mM Dimethyldecylphoshine oxide [Apo-10] (Fluka Corporation)

For test [3], the target named is T1, recombinant human PAI-1. Nature of the test: Test Example 4: Human PAI-1 Inhibitory Activity (amount of PAI-1 bound to plate-coated one-chain tPA, ELISA). As to conditions: human PAI-1 bound to tPA, read-out: Inhibition Rate of PAI-1 Activity (%); for inhibition at 0.3 µM: Compound Concentration 0.3µM; for inhibition at 1 µM: Compound Concentration 1µM; for inhibition at 3 µM: Compound Concentration 3µM. Set-up: purchased Molecular Innovations, Inc. Format: biochemical. As to the method: 100 µl of tPA solution, where one-chain recombinant tPA (hereinafter reffered to as tPA; American diagnostica, inc.) had been diluted with Buffer A to acheive a concentration of 10 µg/ml, was added to each well of a 96-well plate (Nunc Maxisorp), and the plate was incubated for one night at 4 °C to be coated with tPA. Then, after suction of tPA solution from the 96-well plate, the plate was rinsed successively with Buffer A and Buffer B. To Buffer B, solutions of the compound according to the present invention dissolved with DMSO (final DMSO concentration: 0.2 %) and recombinant human PAI-1 (Molecular Innovations, Inc.) were added. The mixtures were blended so that the final concentrations would be 0.1 to 3.0 µM and 50 ng/ml respectively, and were incubated for 15 minutes on ice. These mixed solutions were added to the rinsed 96-well plate at 100 µl/well, and incubated for 60 minutes at room temperature. To prepare a calibration curve, PAI-1 solutions without the compound according to the present invention (solutions where the final concentrations being 100, 50, 25, 12.5, 6.25, 3.13, or 1.56 ng/ml PAI-1) were added at 100 µl/well, and the plate was incubated for 60 minutes at room temperature, as standard.
After incubation, the reaction mixture was removed by suction, and each well was rinsed with Wash Buffer. Next, anti-human PAI-1 monoclonal antibody (PROGEN Inc.) diluted with Buffer C to be 3.0 µg/ml was added to the 96-well plate at 100 µl/well, and the plate was incubated for 1 hour at room temperature. After rinsing each well with Wash Buffer, alkaline phosphatase-labeled goat anti-mouse IgG (H+L) (Jackson ImmunoResearch, Inc.) diluted with Buffer D to be 0.12 µg/ml was added at 100 µl/well, and the plate was incubated for 1 hour at room temperature. After rinsing each well with Wash Buffer, 1.0 mg/ml p-Nitrophenyl Phosphate (SIGMA) was added to the 96-well plate at 100 µl/well to start the reaction. After 30 to 60 minutes, 25 µl of 0.5 N NaOH was added to stop the reaction, and the absorbance was measured at 405 nm using a multiplate reader (GENios; TECAN G.M.B.H.).
Based on the calibration curve prepared from the standard wells, amounts of PAI-1 bound to tPA in the wells that had been treated with the compound according to the present invention were calculated, and the PAI-1 inhibition rates by the compounds according to the present invention were obtained by the following equation. [API-1InhibitionRate(%)] = [1-(amountofPAI-1boundtotPaonthewellbytreatmentwiththecompondaccordingtothepresentinvention)/(amountofPAI-1boundtotPAonthewellbytreatmentwithPAI-1solutionnotincledingthecompondaccordingtotheinvention(solution having the final concentration of 50 nb/ml PAI-1)] × 100 [formula] • <Composition of Buffer A> 0.1 M Tris-HCl, 150 mM NaCl, pH 7.7 • <Composition of Buffer B> 50 mM sodium phosphate, 0.1 M NaCl, 1 mM EDTA, pH 6.6 • <Composition of Buffer C> 50 mM sodium phosphate, 100 mM NaCl, pH 7.4 • <Composition of Buffer D> 0.01 M Tris-HCl, 0.25 M NaCl, pH 8.0 • <Compositon of Wash Buffer> 0.05 % Tween 20, 0.1 % BSA in Buffer A • <Composition of p-Nitrophenyl Phosphate solution> 1 M Diethanolamine 0.5 mM MgCl2, p-Nitrophenyl phosphate, pH 9.8
For orientation: An ELISA detects its analyte on a solid surface through an enzyme-linked reagent.

The target in test [4] is T2, recombinant rat PAI-1 (Rattus norvegicus, UniProt P20961).
T2 sequence (P20961 24-402): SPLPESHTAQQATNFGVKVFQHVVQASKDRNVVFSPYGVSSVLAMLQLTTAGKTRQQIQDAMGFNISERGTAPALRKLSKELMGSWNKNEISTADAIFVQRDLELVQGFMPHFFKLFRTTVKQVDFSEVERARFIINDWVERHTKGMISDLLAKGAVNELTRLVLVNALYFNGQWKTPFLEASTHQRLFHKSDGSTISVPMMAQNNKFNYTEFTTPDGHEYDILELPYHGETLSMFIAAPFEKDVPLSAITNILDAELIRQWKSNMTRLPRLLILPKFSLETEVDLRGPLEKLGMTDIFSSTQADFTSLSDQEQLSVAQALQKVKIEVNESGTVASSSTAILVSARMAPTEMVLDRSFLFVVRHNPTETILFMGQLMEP
Description: biochemical. Particulars: read-out: Inhibition Rate of PAI-1 Activity (%).

The mark [5] stands for this setting: read-out: Inhibition Rate of PAI-1 Activity (%), Compound Concentration 5µM.
Setting [6] is: read-out: Inhibition Rate of PAI-1 Activity (%), Compound Concentration 10µM.
Where [7] appears, read: read-out: Inhibition Rate of PAI-1 Activity (%), Compound Concentration 25µM.
Setting [8] is: read-out: Inhibition Rate of PAI-1 Activity (%).

T1 sequence (P05121 24-402): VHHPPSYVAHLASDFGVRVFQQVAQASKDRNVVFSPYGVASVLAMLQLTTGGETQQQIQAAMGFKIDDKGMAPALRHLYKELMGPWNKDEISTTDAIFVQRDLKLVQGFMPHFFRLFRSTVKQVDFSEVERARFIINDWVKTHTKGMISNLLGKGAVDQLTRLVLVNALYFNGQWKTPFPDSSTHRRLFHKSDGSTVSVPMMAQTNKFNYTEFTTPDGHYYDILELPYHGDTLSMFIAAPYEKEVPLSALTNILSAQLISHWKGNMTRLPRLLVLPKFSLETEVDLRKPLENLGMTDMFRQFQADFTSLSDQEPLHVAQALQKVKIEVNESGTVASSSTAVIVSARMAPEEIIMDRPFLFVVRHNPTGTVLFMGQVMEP

With `CC(C)(C)c1ccc(CN(C(=O)C(=O)O)c2ccc(Oc3ccc(OC(F)(F)F)cc3)cc2C(F)(F)F)cc1` [Compound 174], the inhibition at 5 µM in test [1] (setting [5]) amounted to 61%. Also, the inhibition at 10 µM in test [1] (setting [6]) was 92%. The inhibition at 25 µM in test [1] (setting [7]) turned out to be 91%. In addition, in test [2], the inhibition at 0.1 µM turned out to be 0%, the inhibition at 0.3 µM amounted to 0%, the inhibition at 1 µM was determined as 26% and the inhibition at 3 µM came out at 96%. Moreover, in test [3], the inhibition at 0.3 µM came out at 0%, the inhibition at 1 µM was found to be 7% and the inhibition at 3 µM worked out at 32%. Besides, in test [4], the inhibition at 0.3 µM was determined as 0%, the inhibition at 1 µM was 11%, the inhibition at 3 µM was determined as 76% and the inhibition at 10 µM is 94%.
For the compound `CCCOc1ccc(N(Cc2ccc(C(C)(C)C)cc2)C(=O)C(=O)O)cc1-c1ccc(OC(F)(F)F)cc1` [Compound 185], the inhibition at 5 µM in test [1] (setting [5]) was found to be 81%. Further, the inhibition at 10 µM in test [1] (setting [6]) turned out to be 87%. In addition, the inhibition at 25 µM in test [1] (setting [7]) was found to be 89%. Further, in test [2], the inhibition at 0.1 µM turned out to be 0%, the inhibition at 0.3 µM is 9%, the inhibition at 1 µM stood at 34% and the inhibition at 3 µM was above 99%. Further, in test [3], the inhibition at 0.3 µM is 10%, the inhibition at 1 µM was determined as 20% and the inhibition at 3 µM was 49%. In addition, in test [4], the inhibition at 0.3 µM was found to be 3%, the inhibition at 1 µM is 17%, the inhibition at 3 µM amounted to 85% and the inhibition at 10 µM turned out to be 76%.
Take `CCCCc1ccc(CN(C(=O)C(=O)O)c2ccc(-c3ccc(C(C)(C)C)cc3)cc2)cc1` [Compound 206]: the inhibition at 5 µM in test [1] (setting [5]) is 78%. The inhibition at 10 µM in test [1] (setting [6]) worked out at 92%. Moreover, the inhibition at 25 µM in test [1] (setting [7]) came to 89%. Also, in test [2], the inhibition at 0.1 µM was found to be 3%, the inhibition at 0.3 µM worked out at 13%, the inhibition at 1 µM was found to be 66% and the inhibition at 3 µM was above 99%. In test [3], the inhibition at 0.3 µM was 0%, the inhibition at 1 µM stood at 17% and the inhibition at 3 µM turned out to be 40%. Moreover, in test [4], the inhibition at 0.3 µM was 3%, the inhibition at 1 µM worked out at 29%, the inhibition at 3 µM worked out at 90% and the inhibition at 10 µM is 88%.
As for `CC(C)(C)c1ccc(Oc2cc(-c3ccc(OC(F)(F)F)cc3)ccc2OCC(=O)O)cc1` [Compound 112], in test [1] (setting [8]), the inhibition at 5 µM worked out at 34%, the inhibition at 10 µM worked out at 82% and the inhibition at 25 µM was found to be 95%. Besides, in test [2], the inhibition at 0.1 µM was found to be 0%, the inhibition at 0.3 µM came out at 19%, the inhibition at 1 µM stood at 56% and the inhibition at 3 µM was above 99%. Besides, in test [3], the inhibition at 0.3 µM was 0%, the inhibition at 1 µM is 6% and the inhibition at 3 µM was 36%. Further, in test [4], the inhibition at 0.3 µM stood at 0%, the inhibition at 1 µM was found to be 14%, the inhibition at 3 µM was determined as 75% and the inhibition at 10 µM was 96%.
As for `CC(C)(C)c1ccc(Oc2ccc(-c3ccc(OC(F)(F)F)cc3)cc2CCC(=O)O)cc1` [Compound 13], the inhibition at 5 µM in test [1] (read-out: Inhibition Rate of PAI Activity (%), Compound Concentration 5µM) came to 83%. Moreover, in test [1] (read-out: Inhibition Rate of PAI Activity (%), Compound Concentration 10µM), the inhibition at 10 µM worked out at 93%. Besides, in test [2], the inhibition at 0.1 µM came out at 5%, the inhibition at 0.3 µM came to 8%, the inhibition at 1 µM is 36% and the inhibition at 3 µM came to 99%. Further, in test [3], the inhibition at 0.3 µM came to 7%, the inhibition at 1 µM turned out to be 14% and the inhibition at 3 µM was 41%. For the same compound, in test [4], the inhibition at 0.3 µM came to 0%, the inhibition at 1 µM amounted to 14%, the inhibition at 3 µM was found to be 69% and the inhibition at 10 µM was above 99%.
On to `CC(C)(C)c1ccc(CN(C(=O)C(=O)O)c2cccc(-c3ccc(OC(F)(F)F)cc3)c2)cc1` [Compound 130], for which the inhibition at 5 µM in test [1] (setting [5]) worked out at 82%. Moreover, the inhibition at 10 µM in test [1] (setting [6]) was 96%. Moreover, in test [2], the inhibition at 0.1 µM was 0%, the inhibition at 0.3 µM turned out to be 2%, the inhibition at 1 µM is 18% and the inhibition at 3 µM amounted to 84%. Moreover, in test [3], the inhibition at 0.3 µM is 1%, the inhibition at 1 µM is 3% and the inhibition at 3 µM is 15%. Moreover, in test [4], the inhibition at 0.3 µM stood at 1%, the inhibition at 1 µM amounted to 16%, the inhibition at 3 µM was determined as 50% and the inhibition at 10 µM is above 99%.
For the compound `CC(C)(Oc1cccc(-c2ccc(OC(F)(F)F)cc2)c1OCc1ccc(C(C)(C)C)cc1)C(=O)O` [Compound 118], the inhibition at 5 µM in test [1] (setting [5]) came out at 56%. Moreover, the inhibition at 10 µM in test [1] (setting [6]) amounted to 82%. In test [1] (setting [7]), the inhibition at 25 µM was determined as 93%. In test [2], the inhibition at 0.1 µM came to 0%, the inhibition at 0.3 µM stood at 6%, the inhibition at 1 µM was found to be 49% and the inhibition at 3 µM is above 99%. Also, in test [3], the inhibition at 0.3 µM stood at 0%, the inhibition at 1 µM amounted to 4% and the inhibition at 3 µM worked out at 46%. For the same compound, in test [4], the inhibition at 0.3 µM came to 0%, the inhibition at 1 µM worked out at 16%, the inhibition at 3 µM was found to be 77% and the inhibition at 10 µM is 93%.
With `CC(C)(C)c1ccc(Oc2ccc(Oc3ccc(OC(F)(F)F)cc3)cc2CCC(=O)O)cc1` [Compound 100], in test [1] (setting [8]), the inhibition at 5 µM amounted to 64%, the inhibition at 10 µM was found to be 91% and the inhibition at 25 µM was 98%. Also, in test [2], the inhibition at 0.1 µM is 0%, the inhibition at 0.3 µM turned out to be 2%, the inhibition at 1 µM was determined as 29% and the inhibition at 3 µM turned out to be 93%. For the same compound, in test [3], the inhibition at 0.3 µM amounted to 7%, the inhibition at 1 µM stood at 37% and the inhibition at 3 µM came to 79%. Besides, in test [4], the inhibition at 0.3 µM stood at 0%, the inhibition at 1 µM worked out at 7%, the inhibition at 3 µM stood at 70% and the inhibition at 10 µM was above 99%.
